Measured values: the NIST ThermoML archive (doi:10.1021/je900916e)
Numbers after ± are expanded uncertainties.

Assay: cn = amount concentration of the nth substance listed, in mol/dm3
Conditions: 101 kPa, Liquid, Advanced Condctivity Orion 162A

N.O=C(O)C(F)(F)C(F)(F)C(F)(F)C(F)(F)C(F)(F)C(F)(F)C(F)(F)F [ammonium perfluorooctanoate] + O
Conditions	electrical conductivity [S/m]
288.15 K, c1 = 0.002632	0.019 ± 0.0001
288.15 K, c1 = 0.005195	0.0351 ± 0.0001
288.15 K, c1 = 0.007692	0.051 ± 0.0001
288.15 K, c1 = 0.01013	0.0665 ± 0.0001
288.15 K, c1 = 0.0125	0.0805 ± 0.0002
288.15 K, c1 = 0.01481	0.0943 ± 0.0002
288.15 K, c1 = 0.01707	0.1074 ± 0.0002
288.15 K, c1 = 0.01928	0.1198 ± 0.0002
288.15 K, c1 = 0.02143	0.1318 ± 0.0003
288.15 K, c1 = 0.02353	0.1429 ± 0.0003
288.15 K, c1 = 0.02558	0.1533 ± 0.0003
288.15 K, c1 = 0.02759	0.163 ± 0.0003
288.15 K, c1 = 0.02955	0.1691 ± 0.0003
288.15 K, c1 = 0.03146	0.174 ± 0.0004
288.15 K, c1 = 0.03333	0.1785 ± 0.0004
288.15 K, c1 = 0.03516	0.1828 ± 0.0004
288.15 K, c1 = 0.03696	0.187 ± 0.0004
288.15 K, c1 = 0.03957	0.1926 ± 0.0004
288.15 K, c1 = 0.04211	0.1982 ± 0.0004
288.15 K, c1 = 0.04456	0.2036 ± 0.0004
288.15 K, c1 = 0.04694	0.209 ± 0.0004
288.15 K, c1 = 0.05	0.2155 ± 0.0004
288.15 K, c1 = 0.05294	0.2216 ± 0.0004
288.15 K, c1 = 0.05577	0.2275 ± 0.0005
293.15 K, c1 = 0.002632	0.021 ± 0.0001
293.15 K, c1 = 0.005195	0.0402 ± 0.0001
293.15 K, c1 = 0.007692	0.0582 ± 0.0001
293.15 K, c1 = 0.01013	0.0753 ± 0.0002
293.15 K, c1 = 0.0125	0.092 ± 0.0002
293.15 K, c1 = 0.01481	0.1078 ± 0.0002
293.15 K, c1 = 0.01707	0.1224 ± 0.0003
293.15 K, c1 = 0.01928	0.1364 ± 0.0003
293.15 K, c1 = 0.02143	0.1498 ± 0.0003
293.15 K, c1 = 0.02353	0.1625 ± 0.0003
293.15 K, c1 = 0.02558	0.1735 ± 0.0004
293.15 K, c1 = 0.02759	0.1815 ± 0.0004
293.15 K, c1 = 0.02955	0.1888 ± 0.0004
293.15 K, c1 = 0.03146	0.1942 ± 0.0004
293.15 K, c1 = 0.03333	0.1995 ± 0.0004
293.15 K, c1 = 0.03516	0.2045 ± 0.0004
293.15 K, c1 = 0.03696	0.209 ± 0.0004
293.15 K, c1 = 0.03957	0.216 ± 0.0004
293.15 K, c1 = 0.04211	0.222 ± 0.0004
293.15 K, c1 = 0.04536	0.231 ± 0.0005
293.15 K, c1 = 0.04848	0.239 ± 0.0005
293.15 K, c1 = 0.05149	0.247 ± 0.0005
293.15 K, c1 = 0.05437	0.2545 ± 0.0005
298.15 K, c1 = 0.002817	0.0241 ± 0.0001
298.15 K, c1 = 0.005556	0.0457 ± 0.0001
298.15 K, c1 = 0.008219	0.0665 ± 0.0001
298.15 K, c1 = 0.01081	0.0848 ± 0.0002
298.15 K, c1 = 0.01333	0.1033 ± 0.0002
298.15 K, c1 = 0.01579	0.1221 ± 0.0003
298.15 K, c1 = 0.01818	0.1411 ± 0.0003
298.15 K, c1 = 0.02051	0.1577 ± 0.0003
298.15 K, c1 = 0.02278	0.1735 ± 0.0004
298.15 K, c1 = 0.025	0.1884 ± 0.0004
298.15 K, c1 = 0.02716	0.199 ± 0.0004
298.15 K, c1 = 0.02927	0.2067 ± 0.0004
298.15 K, c1 = 0.03132	0.2144 ± 0.0004
298.15 K, c1 = 0.03333	0.2207 ± 0.0004
298.15 K, c1 = 0.03529	0.2269 ± 0.0005
298.15 K, c1 = 0.03721	0.2337 ± 0.0005
298.15 K, c1 = 0.03908	0.2394 ± 0.0005
298.15 K, c1 = 0.04091	0.2452 ± 0.0005
298.15 K, c1 = 0.0427	0.251 ± 0.0005
298.15 K, c1 = 0.04444	0.2558 ± 0.0005
298.15 K, c1 = 0.04699	0.2635 ± 0.0005
298.15 K, c1 = 0.04946	0.2721 ± 0.0005
298.15 K, c1 = 0.05185	0.2798 ± 0.0006
298.15 K, c1 = 0.05417	0.2856 ± 0.0006
298.15 K, c1 = 0.05641	0.2923 ± 0.0006
303.15 K, c1 = 0.002632	0.0264 ± 0.0001
303.15 K, c1 = 0.005195	0.0503 ± 0.0001
303.15 K, c1 = 0.007692	0.0726 ± 0.0002
303.15 K, c1 = 0.01013	0.0937 ± 0.0002
303.15 K, c1 = 0.0125	0.1137 ± 0.0002
303.15 K, c1 = 0.01481	0.1325 ± 0.0003
303.15 K, c1 = 0.01707	0.1505 ± 0.0003
303.15 K, c1 = 0.01928	0.1679 ± 0.0003
303.15 K, c1 = 0.02143	0.1833 ± 0.0004
303.15 K, c1 = 0.02353	0.1983 ± 0.0004
303.15 K, c1 = 0.02558	0.2125 ± 0.0004
303.15 K, c1 = 0.02759	0.221 ± 0.0004
303.15 K, c1 = 0.02955	0.229 ± 0.0005
303.15 K, c1 = 0.03146	0.236 ± 0.0005
303.15 K, c1 = 0.03333	0.243 ± 0.0005
303.15 K, c1 = 0.03516	0.2495 ± 0.0005
303.15 K, c1 = 0.03696	0.256 ± 0.0005
303.15 K, c1 = 0.03957	0.2645 ± 0.0005
303.15 K, c1 = 0.04211	0.273 ± 0.0005
303.15 K, c1 = 0.04456	0.281 ± 0.0006
303.15 K, c1 = 0.04694	0.289 ± 0.0006
303.15 K, c1 = 0.05	0.299 ± 0.0006
303.15 K, c1 = 0.05294	0.309 ± 0.0006
303.15 K, c1 = 0.05577	0.3185 ± 0.0006
308.15 K, c1 = 0.002632	0.0291 ± 0.0001
308.15 K, c1 = 0.005195	0.0556 ± 0.0001
308.15 K, c1 = 0.007692	0.0802 ± 0.0002
308.15 K, c1 = 0.01013	0.1034 ± 0.0002
308.15 K, c1 = 0.0125	0.1244 ± 0.0003
308.15 K, c1 = 0.01481	0.1452 ± 0.0003
308.15 K, c1 = 0.01707	0.165 ± 0.0003
308.15 K, c1 = 0.01928	0.1844 ± 0.0004
308.15 K, c1 = 0.02143	0.203 ± 0.0004
308.15 K, c1 = 0.02353	0.22 ± 0.0004
308.15 K, c1 = 0.02558	0.232 ± 0.0005
308.15 K, c1 = 0.02759	0.242 ± 0.0005
308.15 K, c1 = 0.02955	0.251 ± 0.0005
308.15 K, c1 = 0.03146	0.259 ± 0.0005
308.15 K, c1 = 0.03333	0.267 ± 0.0005
308.15 K, c1 = 0.03516	0.274 ± 0.0006
308.15 K, c1 = 0.03696	0.281 ± 0.0006
308.15 K, c1 = 0.03957	0.291 ± 0.0006
308.15 K, c1 = 0.04211	0.301 ± 0.0006
308.15 K, c1 = 0.04456	0.3105 ± 0.0006
308.15 K, c1 = 0.04772	0.322 ± 0.0006
308.15 K, c1 = 0.05075	0.333 ± 0.0007
308.15 K, c1 = 0.05366	0.344 ± 0.0007
313.15 K, c1 = 0.002632	0.0318 ± 0.0001
313.15 K, c1 = 0.005195	0.0606 ± 0.0001
313.15 K, c1 = 0.007692	0.0875 ± 0.0002
313.15 K, c1 = 0.01013	0.1126 ± 0.0002
313.15 K, c1 = 0.0125	0.1364 ± 0.0003
313.15 K, c1 = 0.01481	0.1592 ± 0.0003
313.15 K, c1 = 0.01707	0.1811 ± 0.0004
313.15 K, c1 = 0.01928	0.2025 ± 0.0004
313.15 K, c1 = 0.02143	0.223 ± 0.0004
313.15 K, c1 = 0.02353	0.241 ± 0.0005
313.15 K, c1 = 0.02558	0.256 ± 0.0005
313.15 K, c1 = 0.02759	0.267 ± 0.0005
313.15 K, c1 = 0.02955	0.277 ± 0.0006
313.15 K, c1 = 0.03146	0.286 ± 0.0006
313.15 K, c1 = 0.03333	0.295 ± 0.0006
313.15 K, c1 = 0.03516	0.303 ± 0.0006
313.15 K, c1 = 0.03696	0.311 ± 0.0006
313.15 K, c1 = 0.03957	0.322 ± 0.0006
313.15 K, c1 = 0.04211	0.333 ± 0.0007
313.15 K, c1 = 0.04456	0.344 ± 0.0007
313.15 K, c1 = 0.04694	0.354 ± 0.0007
313.15 K, c1 = 0.05	0.367 ± 0.0007
313.15 K, c1 = 0.05294	0.38 ± 0.0008
318.15 K, c1 = 0.002632	0.0344 ± 0.0001
318.15 K, c1 = 0.005195	0.0656 ± 0.0001
318.15 K, c1 = 0.007692	0.0948 ± 0.0002
318.15 K, c1 = 0.01013	0.1225 ± 0.0003
318.15 K, c1 = 0.0125	0.1474 ± 0.0003
318.15 K, c1 = 0.01481	0.1726 ± 0.0003
318.15 K, c1 = 0.01707	0.1968 ± 0.0004
318.15 K, c1 = 0.01928	0.219 ± 0.0004
318.15 K, c1 = 0.02143	0.241 ± 0.0005
318.15 K, c1 = 0.02353	0.262 ± 0.0005
318.15 K, c1 = 0.02558	0.279 ± 0.0006
318.15 K, c1 = 0.02759	0.292 ± 0.0006
318.15 K, c1 = 0.02955	0.303 ± 0.0006
318.15 K, c1 = 0.03146	0.313 ± 0.0006
318.15 K, c1 = 0.03333	0.323 ± 0.0006
318.15 K, c1 = 0.03516	0.3325 ± 0.0007
318.15 K, c1 = 0.03696	0.3415 ± 0.0007
318.15 K, c1 = 0.03957	0.3535 ± 0.0007
318.15 K, c1 = 0.04211	0.3655 ± 0.0007
318.15 K, c1 = 0.04456	0.377 ± 0.0008
318.15 K, c1 = 0.04772	0.3915 ± 0.0008
318.15 K, c1 = 0.05074	0.4055 ± 0.0008
318.15 K, c1 = 0.05366	0.419 ± 0.0008
